Data on 15 compounds can be found in ChEMBL document CHEMBL5584223, “Research progress of prodrugs for the treatment of cerebral ischemia” (Eur J Med Chem, 2024).

In general, IC50 refers to the midpoint of a concentration-inhibition curve. What is called Cmax is the maximum level reached in the sampled fluid or tissue. As usually defined, the half-life is how long it takes for the measured level to halve. The inhibition is the drop in the measured response relative to a control, in per cent. The term logP denotes the decadic logarithm of the partition coefficient of the neutral form, usually between octanol and water. A word on the solubility: it is the concentration that dissolves in the medium under given conditions.

Data set [1] concerns Rattus norvegicus. Put plainly: Protection against MCAO-induced Sprague-Dawley rat assessed as reduction in infarct volume in brain at 20 mg/kg, iv measured for 24 hrs relative to control. Details: scale not given: the % may be the effect or the level left. Type of data set: functional.
Data set [2] has as its system Platelet. Put plainly: Inhibition of AA-induced platelet aggregation in New Zealand White rabbit. Type of data set: functional, cell-based. Conditions: Oryctolagus cuniculus.
Data set [3] relates to Platelet. As to the kind of experiment: Inhibition of ADP-induced platelet aggregation in New Zealand White rabbit. It counts as functional, cell-based. Conditions: Oryctolagus cuniculus.
Data set [4] in a line: Plasma concentration in human. Type of data set: ADME.
Data set [5] in a line: Cmax in Sprague-Dawley rat at 12.5 mg/kg, iv measured for 24 hrs by LC-MS/MS analysis. Type of data set: ADME, organism-based. The following applies: in vivo.
Data set [6] is described as follows: AUC (0 to t) in Sprague-Dawley rat at 12.5 mg/kg, iv incubated for 24 hrs by LC-MS/MS analysis. Type of data set: ADME, organism-based. Conditions: in vivo.
Data set [7] can be described thus: AUC (0 to infinity) in Sprague-Dawley rat at 12.5 mg/kg, iv incubated for 24 hrs by LC-MS/MS analysis. It counts as ADME, organism-based. The following applies: in vivo.
Data set [8] relates to Rattus norvegicus. Put plainly: Protection against MCAO-induced rat assessed as reduction in infarct volume in brain at 40 mg/kg, iv measured after 24 hrs relative to control. Type of data set: functional. Details: scale not given: the % may be the effect or the level left.
A short description of data set [9]: Half life in rat at 15 mg/kg, iv measured after 24 hrs by LC-MS/MS analysis. The following applies: in vivo. Type of data set: ADME, organism-based.
Data set [10] can be described thus: Ratio of drug concentration in rat brain to plasma measured after 0.5 hrs by LC-MS/MS analysis. It counts as ADME. Conditions: read-out: BPR.
Data set [11] in a line: Ratio of drug concentration in rat brain to plasma measured after 1 hrs by LC-MS/MS analysis. It counts as ADME. Conditions: read-out: BPR.
Data set [12] is described as follows: Ratio of drug concentration in rat brain to plasma measured after 6 hrs by LC-MS/MS analysis. The following applies: read-out: BPR. It counts as ADME.
Data set [13] deals with Platelet. As to the kind of experiment: Inhibition of ADP-induced platelet aggregation in New Zealand White rabbit at 1 uM relative to control. Type of data set: functional. Conditions: Oryctolagus cuniculus.
The subject of data set [14] is Mus musculus. As to the kind of experiment: Neuroprotective activity against hypoxia-ischemia brain injured mouse model assessed as reduction in infarct volume at 20 mg/kg, iv measured after 72 hrs by immuno-histochemistry based staining analysis relative to control. Details: scale not given: the % may be the effect or the level left. Type of data set: functional.

Data set [15] can be described thus: Lipophilicity, logP of compound. Type of data set: physicochemical. Conditions: octanol/water.
Data set [16] is described as follows: Solubility of compound in PBS at pH 7.4. It counts as physicochemical.
The test system of data set [17] is SH-SY5Y. Put plainly: Neuroprotective activity against MPP+-induced human SH-SY5Y cells assessed as reduction in cell death at 20 uM measured after 48 hrs by MTT assay. Details: scale not given: the % may be the effect or the level left. It counts as functional. A general note: Formazan colour is commonly taken as a measure of viable cells.

In brackets after ≈: the same amount, converted by molar mass. A value given as a limit tells only on which side of the number the result lay.

As to `CCCC[C@H]1OC(=O)c2ccccc21`, in [1], the Activity is recorded as 78.21%. Besides, the IC50 stood at 420 nM in data set [2] and 700 nM in data set [3].
Regarding `O=C(Nc1cc(C(F)(F)F)cc(C(F)(F)F)c1)c1cc(Cl)ccc1OP(=O)(O)O`, the Cp in [4] was more than 500 ng/mL.
Regarding `CCCC[C@H](OC(C)=O)c1ccccc1C(=O)O`, in [1], the Activity was found to be 66.12%.
`O=P([O-])([O-])Oc1ccc(-c2cc(=S)ss2)cc1.[Na+].[Na+]`: the Cmax in data set [5] was determined as 3330 ng/mL. Moreover, the AUCt in data set [6] is 3927.4 h/ng/mL. The compound also had an AUC in data set [7] of 4579 h/ng/mL.
Take `CCCC[C@H](OC(=O)CN1CCC(O[N+](=O)[O-])CC1)c1ccccc1C(=O)OCCCCCCOc1ccc(-c2cc(=S)ss2)cc1`: the results for the IC50 in data set [2] and in data set [3] were 110 nM and 100 nM, respectively.
`CCCC[C@H](OC(C)=O)c1ccccc1C(=O)O.N=C(N)NCCC[C@H](N)C(=O)O`: the Activity in [8] is on record as 78.21%.
With `CCCCC(OC(=O)CN(C)C)c1ccccc1C(=O)Oc1ccc(/C=C/C(=O)OC[C@@H]2OC(O)[C@@H](O)[C@H](O)[C@H]2O)cc1OC` (stereo partly specified), in data set [9], the half-life stood at 44 min. In addition, in data set [10], the Kp at 0.5 h was found to be 1.99. The Kp at 1 h in data set [11] was determined as 1.27. The Kp at 6 h in data set [12] was 4.8.
With `CCCCC(OC(=O)CN(CC)CC)c1ccccc1C(=O)Oc1ccc(/C=C/C(=O)OCCCCO[N+](=O)[O-])cc1OC` (stereo unspecified), the inhibition at 1 µM in data set [13] worked out at 88.5%. The Activity in [8] turned out to be 18.3%.
Consider `CC(=N)NCc1cccc(/C=[N+](\[O-])C(C)(C)C)c1`, for which the Activity in data set [14] worked out at 30%.
In the case of `Cc1cc(O)n(-c2ccc(F)cc2)n1`, in data set [1], the Activity is given as 32.46%.
`COC(=O)[C@H]1O[C@@H](Oc2cc3oc(-c4ccc(OCCCCOC(=O)C5=CCc6cc(OC)ccc6N5C)cc4)cc(=O)c3c(O)c2O)[C@H](O)[C@H](O)[C@H]1O` (single isomer, unassigned) displayed a logP in [15] of 1.76. This compound returned a solubility in data set [16] of 183 µg/mL (≈ 245 µM). In data set [17], the Activity was 65%.
In data set [13], `CC(=O)Oc1ccccc1C(=O)O` [ASPIRIN] showed an inhibition at 1 µM of 73.7%.
Still for that read-out and setting: to `CCCCC1OC(=O)c2ccccc21` (stereo not drawn) [RAC-3-N-BUTYLPHTHALIDE] belongs 51.4%.
`O=C(O)[C@H]1O[C@@H](Oc2cc3oc(-c4ccc(O)cc4)cc(=O)c3c(O)c2O)[C@H](O)[C@@H](O)[C@@H]1O` [SCUTELLARIN] had a logP in data set [15] of 0.015.
Consider `Clc1ccccc1CN1CCc2sccc2C1` [TICLOPIDINE], for which, in [3], the IC50 came out at 360 nM.
